In paper PMC8678482, “Suppression of the Lycopene Cyclase Gene Causes Downregulation of Ascorbate Peroxidase Activity and Decreased Glutathione Pool Size, Leading to H2O2 Accumulation in Euglena gracilis” (Frontiers in Plant Science, 2021):

Molecular target: T1, EgLCY (Euglena gracilis, UniProt A0A7I8I611)
T1 construct: gene lcy; full-length open reading frame in pETDuet-1 (pET-EgLCY, NcoI In-Fusion), expressed in lycopene-accumulating E. coli BL21(DE3) carrying pACCRT-EIB
T1 sequence (A0A7I8I611 1-652): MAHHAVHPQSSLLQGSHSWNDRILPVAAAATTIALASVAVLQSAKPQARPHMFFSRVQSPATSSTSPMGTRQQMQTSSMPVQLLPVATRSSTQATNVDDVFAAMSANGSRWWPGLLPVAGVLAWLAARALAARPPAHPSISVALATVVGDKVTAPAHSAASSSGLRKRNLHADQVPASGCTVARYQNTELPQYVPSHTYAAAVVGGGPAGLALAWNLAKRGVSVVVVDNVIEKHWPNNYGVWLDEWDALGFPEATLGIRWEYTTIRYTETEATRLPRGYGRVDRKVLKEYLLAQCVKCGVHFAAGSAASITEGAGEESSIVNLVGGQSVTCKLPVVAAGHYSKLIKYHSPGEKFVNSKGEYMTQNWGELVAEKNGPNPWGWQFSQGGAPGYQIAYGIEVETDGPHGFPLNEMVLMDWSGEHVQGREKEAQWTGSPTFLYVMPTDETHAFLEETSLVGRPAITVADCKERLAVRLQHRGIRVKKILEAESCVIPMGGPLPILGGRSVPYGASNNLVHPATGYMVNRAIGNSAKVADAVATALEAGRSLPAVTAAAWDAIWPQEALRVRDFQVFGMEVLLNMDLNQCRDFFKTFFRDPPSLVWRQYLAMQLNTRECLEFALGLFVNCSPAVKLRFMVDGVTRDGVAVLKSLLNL
Experiment: in vivo conversion in lycopene-accumulating E. coli, HPLC of carotenoid extracts
Assay type: cell-based
Conditions: co-expression with Pantoea ananatis crtE, crtB, crtI; 48 h at 21°C after IPTG

Structure (SMILES) | in vivo conversion in lycopene-accumulating E. coli, HPLC of carotenoid extracts
CC(C)=CCC/C(C)=C/C=C/C(C)=C/C=C/C(C)=C/C=C/C=C(C)/C=C/C=C(C)/C=C/C=C(\C)CCC=C(C)C [lycopene] | This indicates that EgLCY is a lycopene β-cyclase that converts lycopene to β-carotene.
CC1=C(/C=C/C(C)=C/C=C/C(C)=C/C=C/C=C(C)/C=C/C=C(C)/C=C/C2=C(C)CCCC2(C)C)C(C)(C)CCC1 [β-carotene] | accumulated β-carotene as the main carotenoid when the EgLCY gene was co-expressed
